Here are results for 41 compounds from patent publication US10233173B2, “Substituted 1,2,3-triazoles as NR2B-selective NMDA modulators” (JANSSEN PHARMACEUTICA NV, priority 2016, dated 2019).

The target of the assay is human GluN1/GluN2B NMDA receptors (Homo sapiens, UniProt Q05586+Q13224). The experiment in a line: Cell-based calcium flux (FLIPR) assay on cloned human NR1/NR2B ion channels expressed in mammalian cells. The note with it: standard assay; human GluN1/GluN2B, calcium flux (FLIPR), glutamate ~EC80. The method, boiled down:
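Calcium influx followed by FLIPR fluorescence after 5 min compound exposure and a further 5 min co-agonist challenge: 10 μM glycine with glutamate at ~EC80 (standard) or EC40 (HTS).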

human GluN1/GluN2B NMDA receptors, sequence (Q13224 27-1484, other chains not shown): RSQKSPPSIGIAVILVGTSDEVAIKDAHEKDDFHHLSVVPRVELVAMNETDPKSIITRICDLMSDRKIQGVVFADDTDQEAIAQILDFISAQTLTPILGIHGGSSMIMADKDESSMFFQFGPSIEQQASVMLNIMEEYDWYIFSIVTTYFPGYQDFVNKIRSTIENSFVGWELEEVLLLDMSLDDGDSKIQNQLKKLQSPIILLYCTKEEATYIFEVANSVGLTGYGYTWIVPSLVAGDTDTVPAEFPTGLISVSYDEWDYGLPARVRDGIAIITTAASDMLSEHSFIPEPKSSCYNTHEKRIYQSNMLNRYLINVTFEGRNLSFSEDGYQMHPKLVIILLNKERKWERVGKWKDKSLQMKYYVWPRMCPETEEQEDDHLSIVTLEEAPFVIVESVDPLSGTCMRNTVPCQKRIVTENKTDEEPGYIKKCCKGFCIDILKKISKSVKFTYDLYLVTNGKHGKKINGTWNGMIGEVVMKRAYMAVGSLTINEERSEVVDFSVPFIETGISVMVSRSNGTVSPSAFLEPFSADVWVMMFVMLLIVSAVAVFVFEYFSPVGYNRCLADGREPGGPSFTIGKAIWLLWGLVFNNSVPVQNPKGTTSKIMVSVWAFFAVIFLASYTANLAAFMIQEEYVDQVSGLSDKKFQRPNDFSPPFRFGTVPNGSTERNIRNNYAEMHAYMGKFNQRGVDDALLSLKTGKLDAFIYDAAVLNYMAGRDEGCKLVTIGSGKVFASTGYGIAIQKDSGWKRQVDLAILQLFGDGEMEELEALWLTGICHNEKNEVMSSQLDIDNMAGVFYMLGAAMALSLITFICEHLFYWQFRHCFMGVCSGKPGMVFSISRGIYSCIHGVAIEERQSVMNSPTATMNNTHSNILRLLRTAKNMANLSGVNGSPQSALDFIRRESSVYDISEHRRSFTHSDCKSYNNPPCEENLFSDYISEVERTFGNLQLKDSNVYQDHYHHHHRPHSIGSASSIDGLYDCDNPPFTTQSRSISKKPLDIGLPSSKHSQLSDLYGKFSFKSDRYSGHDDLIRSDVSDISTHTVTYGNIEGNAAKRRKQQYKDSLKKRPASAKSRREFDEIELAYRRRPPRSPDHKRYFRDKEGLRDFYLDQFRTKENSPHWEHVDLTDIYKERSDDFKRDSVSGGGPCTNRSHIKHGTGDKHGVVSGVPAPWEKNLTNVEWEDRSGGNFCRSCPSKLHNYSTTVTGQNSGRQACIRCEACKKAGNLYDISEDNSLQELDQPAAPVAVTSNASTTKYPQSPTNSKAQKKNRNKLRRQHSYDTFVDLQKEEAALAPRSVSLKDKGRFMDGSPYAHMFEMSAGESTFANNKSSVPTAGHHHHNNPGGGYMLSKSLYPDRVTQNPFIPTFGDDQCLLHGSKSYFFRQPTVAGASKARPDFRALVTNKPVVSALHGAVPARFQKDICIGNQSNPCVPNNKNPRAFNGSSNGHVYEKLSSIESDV

Take `CC(F)(F)c1cccc(-n2cc(COc3ncc(F)cn3)nn2)c1` [Example 295, 2-[[1-[3-(1,1-Difluoroethyl)phenyl]triazol-4-yl]methoxy]-5-fluoro-pyrimidine]: the IC50 came to 0.061 µM.
Consider `Cc1ccnc(OCc2cn(-c3cccc(C(C)(F)F)c3)nn2)n1` [Example 296, 2-[[1-[3-(1,1-Difluoroethyl)phenyl]triazol-4-yl]methoxy]-4-methyl-pyrimidine], for which the IC50 came out at 0.012 µM.
As for `Cc1cnc(OCc2cn(-c3cccc(C(C)(F)F)c3)nn2)nc1` [Example 297, 2-[[1-[3-(1,1-Difluoroethyl)phenyl]triazol-4-yl]methoxy]-5-methyl-pyrimidine], the figure is 0.005 µM; as for `CC(F)(F)c1cccc(-n2cc(COc3ncc(CO)cn3)nn2)c1` [Example 298, [2-[[1-[3-(1,1-Difluoroethyl)phenyl]triazol-4-yl]methoxy]pyrimidin-5-yl]methanol], 0.034 µM; as for `CC(F)(F)c1cccc(-n2cc(COc3nccc(CO)n3)nn2)c1` [Example 299, [2-[[1-[3-(1,1-Difluoroethyl)phenyl]triazol-4-yl]methoxy]pyrimidin-4-yl]methanol], 0.049 µM.
For the compound `COCc1ccnc(OCc2cn(-c3cccc(C(C)(F)F)c3)nn2)n1` [Example 300, 2-[[1-[3-(1,1-Difluoroethyl)phenyl]triazol-4-yl]methoxy]-4-(methoxymethyl)pyrimidine], the IC50 was 0.008 µM.
In the case of `CC(C)(O)c1cnc(OCc2cn(-c3cccc(C(C)(F)F)c3)nn2)nc1` [Example 301, 2-[2-[[1-[3-(1,1-Difluoroethyl)phenyl]triazol-4-yl]methoxy]pyrimidin-5-yl]propan-2-ol], the IC50 was determined as 0.119 µM.
For the compound `CC(F)(F)c1cccc(-n2cc(COc3ncc(C(F)F)cn3)nn2)c1` [Example 302, 2-[[1-[3-(1,1-Difluoroethyl)phenyl]triazol-4-yl]methoxy]-5-(difluoromethyl)pyrimidine], the IC50 stood at 0.002 µM.
For the compound `CC(F)(F)c1cccc(-n2cc(COc3nccc(C(F)F)n3)nn2)c1` [Example 303, 2-[[1-[3-(1,1-Difluoroethyl)phenyl]triazol-4-yl]methoxy]-4-(difluoromethyl)pyrimidine], the IC50 amounted to 0.085 µM.
On to `CC(F)(F)c1cccc(-n2cc(COc3nccc(C(F)(F)F)n3)nn2)c1` [Example 304, 2-[[1-[3-(1,1-Difluoroethyl)phenyl]triazol-4-yl]methoxy]-4-(trifluoromethyl)pyrimidine], for which the IC50 turned out to be 0.711 µM.
As to `COc1cnc(OCc2cn(-c3cccc(C(C)(F)F)c3)nn2)nc1` [Example 306, 2-[[1-[3-(1,1-Difluoroethyl)phenyl]triazol-4-yl]methoxy]-5-methoxy-pyrimidine], the IC50 was 0.003 µM.
As for `COc1ccnc(OCc2cn(-c3cccc(C(C)(F)F)c3)nn2)n1` [Example 307, 2-[[1-[3-(1,1-Difluoroethyl)phenyl]triazol-4-yl]methoxy]-4-methoxy-pyrimidine], the IC50 stood at 0.033 µM.
As to `CC(F)(F)c1cccc(-n2cc(COc3ncc(OC(F)F)cn3)nn2)c1` [Example 308, 2-[[1-[3-(1,1-Difluoroethyl)phenyl]triazol-4-yl]methoxy]-5-(difluoromethoxy)pyrimidine], the IC50 turned out to be 0.003 µM.
In the case of `CC(=O)c1cnc(OCc2cn(-c3cccc(C(C)(F)F)c3)nn2)nc1` [Example 309, 1-[2-[[1-[3-(1,1-Difluoroethyl)phenyl]triazol-4-yl]methoxy]pyrimidin-5-yl]ethanone], the IC50 is 0.01 µM.
With `Cc1nc(OCc2cn(-c3cccc(C(C)(F)F)c3)nn2)ncc1Cl` [Example 312, 5-Chloro-2-[[1-[3-(1,1-difluoroethyl)phenyl]triazol-4-yl]methoxy]-4-methyl-pyrimidine], the IC50 was 0.004 µM.
For the compound `Cc1nc(OCc2cn(-c3cccc(C(C)(F)F)c3)nn2)ncc1F` [Example 313, 2-[[1-[3-(1,1-Difluoroethyl)phenyl]triazol-4-yl]methoxy]-5-fluoro-4-methyl-pyrimidine], the IC50 came to 0.005 µM.
Consider `Cc1cnc(OCc2cn(-c3cccc(C(C)(F)F)c3)nn2)nc1N` [Example 314, 2-[[1-[3-(1,1-Difluoroethyl)phenyl]triazol-4-yl]methoxy]-5-methyl-pyrimidin-4-amine], for which the IC50 was determined as 0.006 µM.
As for `CNc1nc(OCc2cn(-c3cccc(C(C)(F)F)c3)nn2)ncc1F` [Example 315, 2-[[1-[3-(1,1-Difluoroethyl)phenyl]triazol-4-yl]methoxy]-5-fluoro-N-methyl-pyrimidin-4-amine], the figure is 0.158 µM; as for `CC(F)(F)c1cccc(-n2cc(COc3nccc(N)n3)nn2)c1` [Example 316, 2-[[1-[3-(1,1-Difluoroethyl)phenyl]triazol-4-yl]methoxy]pyrimidin-4-amine], 0.183 µM.
As for `CNc1ccnc(OCc2cn(-c3cccc(C(C)(F)F)c3)nn2)n1` [Example 317, 2-[[1-[3-(1,1-Difluoroethyl)phenyl]triazol-4-yl]methoxy]-N-methyl-pyrimidin-4-amine], the figure is 0.026 µM.
On to `CN(C)c1ccnc(OCc2cn(-c3cccc(C(C)(F)F)c3)nn2)n1` [Example 318, 2-[[1-[3-(1,1-Difluoroethyl)phenyl]triazol-4-yl]methoxy]-N,N-dimethyl-pyrimidin-4-amine], for which the IC50 was 0.026 µM.
As for `CC(F)(F)c1cccc(-n2cc(COc3ncc(C4CC4)cn3)nn2)c1` [Example 319, 5-Cyclopropyl-2-[[1-[3-(1,1-difluoroethyl)phenyl]triazol-4-yl]methoxy]pyrimidine], the IC50 came out at 0.015 µM.
Turning to `CC(F)(F)c1cccc(-n2cc(COc3ncc(N4CCC4)cn3)nn2)c1` [Example 320, 5-(Azetidin-1-yl)-2-[[1-[3-(1,1-difluoroethyl)phenyl]triazol-4-yl]methoxy]pyrimidine], the IC50 is 0.061 µM.
For `CC(F)(F)c1cccc(-n2cc(COc3ncc(N4CC(F)C4)cn3)nn2)c1` [Example 321, 2-[[1-[3-(1,1-Difluoroethyl)phenyl]triazol-4-yl]methoxy]-5-(3-fluoroazetidin-1-yl)pyrimidine], the IC50 was determined as 0.104 µM.
As for `CC(F)(F)c1cccc(-n2cc(COc3nccc(N4CCCC4)n3)nn2)c1` [Example 322, 2-[[1-[3-(1,1-Difluoroethyl)phenyl]triazol-4-yl]methoxy]-4-pyrrolidin-1-yl-pyrimidine], the figure is 0.011 µM; as for `FC(F)Oc1cccc(-n2cc(COc3ncccn3)nn2)c1` [Example 323, 2-[[1-[3-(Difluoromethoxy)phenyl]triazol-4-yl]methoxy]pyrimidine], 0.788 µM.
As for `Fc1cnc(OCc2cn(-c3cccc(OC(F)F)c3)nn2)nc1` [Example 324, 2-[[1-[3-(Difluoromethoxy)phenyl]triazol-4-yl]methoxy]-5-fluoro-pyrimidine], the IC50 was 0.494 µM.
Regarding `COc1cnc(OCc2cn(-c3cccc(OC(F)F)c3)nn2)nc1` [Example 325, 2-[[1-[3-(Difluoromethoxy)phenyl]triazol-4-yl]methoxy]-5-methoxy-pyrimidine], the IC50 worked out at 0.027 µM.
Take `FC(F)Oc1cccc(-n2cc(COc3ncc(Cl)cn3)nn2)c1` [Example 326, 5-Chloro-2-[[1-[3-(difluoromethoxy)phenyl]triazol-4-yl]methoxy]pyrimidine]: the IC50 was determined as 0.069 µM.
As to `Cc1cnc(OCc2cn(-c3cccc(OC(F)F)c3)nn2)nc1` [Example 327, 2-[[1-[3-(Difluoromethoxy)phenyl]triazol-4-yl]methoxy]-5-methyl-pyrimidine], the IC50 is 0.015 µM.
As for `CCc1cnc(OCc2cn(-c3cccc(OC(F)F)c3)nn2)nc1` [Example 328, 2-[[1-[3-(Difluoromethoxy)phenyl]triazol-4-yl]methoxy]-5-ethyl-pyrimidine], the figure is 0.029 µM; as for `FC(F)Oc1ccc(-n2cc(COc3ncccn3)nn2)cc1` [Example 329, 2-[[1-[4-(Difluoromethoxy)phenyl]triazol-4-yl]methoxy]pyrimidine], 0.854 µM.
For the compound `Fc1cnc(OCc2cn(-c3ccc(OC(F)F)cc3)nn2)nc1` [Example 330, 2-[[1-[4-(Difluoromethoxy)phenyl]triazol-4-yl]methoxy]-5-fluoro-pyrimidine], the IC50 was 0.752 µM.
`COc1cnc(OCc2cn(-c3ccc(OC(F)F)cc3)nn2)nc1` [Example 331, 2-[[1-[4-(Difluoromethoxy)phenyl]triazol-4-yl]methoxy]-5-methoxy-pyrimidine]: the IC50 was 0.098 µM.
As for `FC(F)Oc1ccc(-n2cc(COc3ncc(Cl)cn3)nn2)cc1` [Example 332, 5-Chloro-2-[[1-[4-(difluoromethoxy)phenyl]triazol-4-yl]methoxy]pyrimidine], the IC50 stood at 0.2 µM.
As for `Cc1cnc(OCc2cn(-c3ccc(OC(F)F)cc3)nn2)nc1` [Example 333, 2-[[1-[4-(Difluoromethoxy)phenyl]triazol-4-yl]methoxy]-5-methyl-pyrimidine], the IC50 worked out at 0.087 µM.
For the compound `CCc1cnc(OCc2cn(-c3ccc(OC(F)F)cc3)nn2)nc1` [Example 334, 2-[[1-[4-(Difluoromethoxy)phenyl]triazol-4-yl]methoxy]-5-ethyl-pyrimidine], the IC50 worked out at 0.051 µM.
As to `FC(F)(F)Oc1ccc(-n2cc(COc3ncccn3)nn2)cc1` [Example 335, 2-[[1-[4-(Trifluoromethoxy)phenyl]triazol-4-yl]methoxy]pyrimidine], the IC50 stood at 3.12 µM.
As to `COc1cnc(OCc2cn(-c3ccc(OC(F)(F)F)cc3)nn2)nc1` [Example 337, 5-Methoxy-2-[[1-[4-(trifluoromethoxy)phenyl]triazol-4-yl]methoxy]pyrimidine], the IC50 is greater than 10 µM.
As to `FC(F)(F)Oc1ccc(-n2cc(COc3ncc(Cl)cn3)nn2)cc1` [Example 338, 5-Chloro-2-[[1-[4-(trifluoromethoxy)phenyl]triazol-4-yl]methoxy]pyrimidine], the concentration for half-maximal inhibition (IC50) was determined as 9.05 µM.
As to `Cc1cnc(OCc2cn(-c3ccc(OC(F)(F)F)cc3)nn2)nc1` [Example 339, 5-Methyl-2-[[1-[4-(trifluoromethoxy)phenyl]triazol-4-yl]methoxy]pyrimidine], the IC50 was determined as 1.13 µM.

Usually IC50 stands for the concentration that gives 50% inhibition.
